In patent US20060128666A1, “Use of sphingomyelin and lyso-sphingomyelin as absorption enhancers” (priority 2003, published 2006):

Assays:
[1] = tested on: confluent Caco-2 cell layers; assay: Transport of nutrients and bisphosphonates through confluent Caco-2 cell layers in two-compartment transport system, in presence of sphingolipid; format: in vitro ADME, human; settings: for Transport velocity of testosterone / Velocity measured/Control velocity, testosterone: nutrient testosterone 10 μM
Procedure: GlySar, mannitol, testosterone, caffeine and cholesterol were tested at a concentration of 10 μM. This concentration was reached by mixing “cold” and radioactively labeled test substrate (mannitol, testosterone and cholesterol) or by testing the radioactively labeled substrate alone (GlySar and caffeine).
In general, the experiments were carried out in the presence and in the absence of 0.03 wt. % of bile. If bile was used in an experiment, this is explicitly stated in the results.
For the present transport studies, Caco-2 cells (passage 34) were seeded on semi-permeable filter inserts (12-well Transwell™ plates, 0.4 μm pores, Corning Costar) at 100,000 cells.per filter (growth surface 1.13 cm^2 containing 2.5 ml of culture medium). The number of cells was counted using a Bürker-Türk count chamber. The cells on the inserts were grown for 21 days at 37° C. in a humidified incubator in an atmosphere of air containing 5% of CO2. During such a culture period, the cells undergo an enterocyte-like differentiation.
Three filter inserts were used per experimental group.
The radioactivity in all samples was determined as DPM (disintegrations per minute), using an LKB/Wallac S1409 scintillation counter. The amount of radioactivity was determined in the 100-μl samples of the dose compartments and in the 500-μl samples of the receptor compartments.
In the experiments whose results are shown in Table 1, phytosphingosine was added as 0.02 wt. % (0.6 μM), ceramide III as 0.02 wt. % (0.3 μM), lysosphingomyelin as 0.008 wt. % (0.2 μM), sphinganine as 0.02 wt. % (0.6 μM) sphingosine as 0.02 wt. % (0.6 μM), egg sphingomyelin as 0.02 wt. % (0.3 μM) and glucosylceramide III as 0.02 wt. % (0.3 μM).

Caco-2 cell layers = assay: Transport of the lipids themselves from apical to basolateral side of Caco-2 cell layer; settings: 19 μg/ml lysosphingomyelin or 16.6 μg/ml phytosphingosine added to apical compartment
Procedure: The effect on transport and the transport of lipids was tested with 0.02 wt. % in transport medium (except for lysosphingomyelin and cerebroside, of which 0.008 wt. % and 0.01 wt. %, respectively, were used). Stock solutions of the test compounds were prepared in ethanol. The stock solutions were diluted in transport medium to a final concentration of 2% (v/v) ethanol in transport medium.
The culture medium was removed from the filter inserts (apical compartment) and from under the filter inserts (basolateral compartment). The inserts were washed using phosphate-buffered saline (PBS) and were moved to a new 12-well plate, whose wells had been filled with 1.8 ml of transport medium (DMEM without phenol red, non-essential amino acids (1% v/v), L-glutamine (2 mM) and gentamicin (50 μg/ml)). The transport study was started by filling the apical chamber with 600 μl of the dosed solution. A sample of 100 μl from the apical compartment was collected directly after administration of the dosage. The 12-well plate with the filter inserts was incubated on a rotating platform (60 rpm) in a humidified incubator at 37° C. under an atmosphere of 5% of CO2 in air. Samples (500 μl) from the basolateral compartment were collected at 15, 30, 60 and 120 min after the start of the transport study. […]

[2] = bisphosphonate EB1053 10 μM, no bile, lysosphingomyelin 0.008 wt. %
[3] = bisphosphonate EB1053 at 10× conc., no bile, lysosphingomyelin 0.008 wt. %
[4] = bisphosphonate d-ADP 10 μM, no bile, lysosphingomyelin 0.008 wt. %
[5] = bisphosphonate d-ADP at 10× conc., no bile, lysosphingomyelin 0.008 wt. %
[6] = nutrient GlySar 10 μM, additive 0.03% bile, lysosphingomyelin 0.008 wt. %
[7] = nutrient caffeine 10 μM, additive 0.03% bile, lysosphingomyelin 0.008 wt. %
[8] = nutrient cholesterol 10 μM, additive 0.03% bile, test lipid 0.02 wt. % (lysosphingomyelin 0.008 wt. %)
[9] = nutrient mannitol 10 μM, additive 0.03% bile, lysosphingomyelin 0.008 wt. %
[10] = additive 0.03% bile, lysosphingomyelin 0.008 wt. %
[11] = no bile, test lipid 0.02 wt. % (lysosphingomyelin 0.008 wt. %)

Procedure for Caco-2 cell monolayers: After 21 days of cell culture, the transepithelial electrical resistance (TEER) of the monolayers was used to check on the growth and differentiation of the Caco-2 cells on the filters (Duizer et al., J. Contr. Release 49: 39-49, 1997). The TEER is a measure for the differentiation status of the monolayer and was measured by means of the Millicell-ERS epithelial volt ohm meter (Millipore Co., Bedford, USA). Only monolayers having a TEER higher than 500 Ω.cm^−2 were used in the transport experiments.
Three filter inserts were used per experimental group. The integrity of all monolayers of Caco-2 cells used in this study was determined by measuring the transepithelial electrical resistance (TEER).

CCCCCCCCCCCCC/C=C/[C@@H](O)[C@@H](N)COP(=O)([O-])OCC[N+](C)(C)C [lysosphingomyelin, sphingosyl-phosphorylcholine]
Resistance between the apical and basolateral liquids (Caco-2 cell monolayers): decrease
Transport velocity of EB1053 [1, 2]: 371 ± 17 cm · hour^−1 × 10^−7
Velocity measured/Control velocity, EB1053 [1, 2]: 12.2
Transport velocity of EB1053 (10× conc.) [1, 3]: 414 ± 13 cm · hour^−1 × 10^−7
Velocity measured/Control velocity, EB1053 (10× conc.) [1, 3]: 12.1
Transport velocity of d-ADP [1, 4]: 922 ± 10 cm · hour^−1 × 10^−7
Velocity measured/Control velocity, d-ADP [1, 4]: 4.9
Transport velocity of d-ADP (10× conc.) [1, 5]: 498 ± 8 cm · hour^−1 × 10^−7
Velocity measured/Control velocity, d-ADP (10× conc.) [1, 5]: 6.1
Increase of EB-1053 transport (times faster) ([1]; in presence of 0.008% (w/v) lysosphingomyelin): 12 times
Transport velocity of GlySar [1, 6]: 35.4 ± 2.4 cm · hour^−1 × 10^−7
Velocity measured/Control velocity, GlySar [1, 6]: 1
Transport velocity of GlySar ([1]; nutrient GlySar 10 μM, no bile, test lipid 0.02 wt. % (lysosphingomyelin 0.008 wt. %)): 79.7 ± 28.1 cm · hour^−1 × 10^−7
Transport velocity of caffeine [1, 7]: 560 ± 29 cm · hour^−1 × 10^−7
Velocity measured/Control velocity, caffeine [1, 7]: 1
Transport velocity of caffeine ([1]; nutrient caffeine 10 μM, no bile, test lipid 0.02 wt. % (lysosphingomyelin 0.008 wt. %)): 559 ± 38 cm · hour^−1 × 10^−7
Transport velocity of cholesterol [1, 8]: 1.25 (n = 1) cm · hour^−1 × 10^−7
Velocity measured/Control velocity, cholesterol [1, 8]: 1
Transport velocity of mannitol [1, 9]: 12.3 ± 1.8 cm · hour^−1 × 10^−7
Velocity measured/Control velocity, mannitol [1, 9]: 1
Transport velocity of mannitol ([1]; nutrient mannitol 10 μM, no bile, test lipid 0.02 wt. % (lysosphingomyelin 0.008 wt. %)): 120 ± 9 cm · hour^−1 × 10^−7
Transport velocity of testosterone [1, 10]: 576 ± 24 cm · hour^−1 × 10^−7
Velocity measured/Control velocity, testosterone [1, 10]: 1
Transport velocity of testosterone [1, 11]: 536 ± 21 cm · hour^−1 × 10^−7
Velocity measured/Control velocity, testosterone [1, 11]: 1

CCCCCCCCCCCCCC[C@@H](O)[C@@H](O)[C@@H](N)CO [phytosphingosine]
Lipid still demonstrated in the apical liquid after 120 minutes (Caco-2 cell layers): 12.9 µg/mL
Lipid in the basolateral liquids (apical to basolateral transport of lipid) (Caco-2 cell layers; 120 minutes): no lipids could be demonstrated
